Laboratory results as given in paper PMC6591251, “Discovery of potent necroptosis inhibitors targeting RIPK1 kinase activity for the treatment of inflammatory disorder and cancer metastasis” (Cell Death & Disease, 2019).

What was measured:
Experiment in all cases: RBC kinase panel
Format in all cases: biochemical
Conditions in all cases: ATP 10 μM, Data1, Data2
PDGFRb = target: T1, PDGFRb (Homo sapiens, UniProt P09619)
T1 construct: purchased Reaction Biology Corporation
Experimental: (§1) PK68 was tested at 1 μM in duplicate against a panel of 369 human kinases at Reaction Biology Corporation. Results are viewed in the human kinome phylogenetic tree.
(§2) ^a Compound PK68 was tested at 1 μM in duplicate against 369 kinases using the RBC kinase panel service of Reaction Biology Corporation. All the ATP concentrations used were 10 μM. […] Full protocol details are available at http://www.reactionbiology.com.

PKCtheta = target: T2, PKCtheta (Homo sapiens, UniProt Q04759)
T2 construct: purchased Reaction Biology Corporation
Experimental: as §1, §2

PBK/TOPK = target: T3, PBK/TOPK (Homo sapiens, UniProt Q96KB5)
T3 construct: purchased Reaction Biology Corporation
Experimental: as §1, §2

CK1d = target: T4, CK1d (Homo sapiens, UniProt P48730)
T4 construct: purchased Reaction Biology Corporation
Experimental: as §1, §2

PLK4/SAK = target: T5, PLK4/SAK (Homo sapiens, UniProt O00444)
T5 construct: purchased Reaction Biology Corporation
Experimental: as §1, §2

CK1a1L = target: T6, CK1a1L (Homo sapiens, UniProt Q8N752)
T6 construct: purchased Reaction Biology Corporation
Experimental: as §1, §2

PDK1/PDPK1 = target: T7, PDK1/PDPK1 (Homo sapiens, UniProt O15530)
T7 construct: purchased Reaction Biology Corporation
Experimental: as §1, §2

ALK3/BMPR1A = target: T8, ALK3/BMPR1A (Homo sapiens, UniProt P36894)
T8 construct: purchased Reaction Biology Corporation
Experimental: as §1, §2

CAMKK1 = target: T9, CAMKK1 (Homo sapiens, UniProt Q8N5S9)
T9 construct: purchased Reaction Biology Corporation
Experimental: as §1, §2

DYRK2 = target: T10, DYRK2 (Homo sapiens, UniProt Q92630)
T10 construct: purchased Reaction Biology Corporation
Experimental: as §1, §2

c-Kit = target: T11, c-Kit (Homo sapiens, UniProt P10721)
T11 construct: purchased Reaction Biology Corporation
Experimental: as §1, §2

CDK6/cyclin D1 = target: T12, CDK6/cyclin D1 (Homo sapiens, UniProt Q00534)
T12 construct: purchased Reaction Biology Corporation
Experimental: as §1, §2

MAPKAPK2 = target: T13, MAPKAPK2 (Homo sapiens, UniProt P49137)
T13 construct: purchased Reaction Biology Corporation
Experimental: as §1, §2

SNARK/NUAK2 = target: T14, SNARK/NUAK2 (Homo sapiens, UniProt Q9H093)
T14 construct: purchased Reaction Biology Corporation
Experimental: as §1, §2

MARK4 = target: T15, MARK4 (Homo sapiens, UniProt Q96L34)
T15 construct: purchased Reaction Biology Corporation
Experimental: as §1, §2

EPHB3 = target: T16, EPHB3 (Homo sapiens, UniProt P54753)
T16 construct: purchased Reaction Biology Corporation
Experimental: as §1, §2

LATS2 = target: T17, LATS2 (Homo sapiens, UniProt Q9NRM7)
T17 construct: purchased Reaction Biology Corporation
Experimental: as §1, §2

NEK5 = target: T18, NEK5 (Homo sapiens, UniProt Q6P3R8)
T18 construct: purchased Reaction Biology Corporation
Experimental: as §1, §2

RSK2 = target: T19, RSK2 (Homo sapiens, UniProt P51812)
T19 construct: purchased Reaction Biology Corporation
Experimental: as §1, §2

TNK1 = target: T20, TNK1 (Homo sapiens, UniProt Q13470)
T20 construct: purchased Reaction Biology Corporation
Experimental: as §1, §2

PRKX = target: T21, PRKX (Homo sapiens, UniProt P51817)
T21 construct: purchased Reaction Biology Corporation
Experimental: as §1, §2

MST2/STK3 = target: T22, MST2/STK3 (Homo sapiens, UniProt Q13188)
T22 construct: purchased Reaction Biology Corporation
Experimental: as §1, §2

PKAcg = target: T23, PKAcg (Homo sapiens, UniProt P22612)
T23 construct: purchased Reaction Biology Corporation
Experimental: as §1, §2

TESK1 = target: T24, TESK1 (Homo sapiens, UniProt Q15569)
T24 construct: purchased Reaction Biology Corporation
Experimental: as §1, §2

WEE1 = target: T25, WEE1 (Homo sapiens, UniProt P30291)
T25 construct: purchased Reaction Biology Corporation
Experimental: as §1, §2

PLK2 = target: T26, PLK2 (Homo sapiens, UniProt Q9NYY3)
T26 construct: purchased Reaction Biology Corporation
Experimental: as §1, §2

NEK7 = target: T27, NEK7 (Homo sapiens, UniProt Q8TDX7)
T27 construct: purchased Reaction Biology Corporation
Experimental: as §1, §2

RSK3 = target: T28, RSK3 (Homo sapiens, UniProt Q15349)
T28 construct: purchased Reaction Biology Corporation
Experimental: as §1, §2

ZAK/MLTK = target: T29, ZAK/MLTK (Homo sapiens, UniProt Q9NYL2)
T29 construct: purchased Reaction Biology Corporation
Experimental: as §1, §2

YSK4/MAP3K19 = target: T30, YSK4/MAP3K19 (Homo sapiens, UniProt Q56UN5)
T30 construct: purchased Reaction Biology Corporation
Experimental: as §1, §2

NEK3 = target: T31, NEK3 (Homo sapiens, UniProt P51956)
T31 construct: purchased Reaction Biology Corporation
Experimental: as §1, §2

CDC7/DBF4 = target: T32, CDC7/DBF4 (Homo sapiens, UniProt O00311)
T32 construct: purchased Reaction Biology Corporation
Experimental: as §1, §2

DLK/MAP3K12 = target: T33, DLK/MAP3K12 (Homo sapiens, UniProt Q12852)
T33 construct: purchased Reaction Biology Corporation
Experimental: as §1, §2

T28 sequence (Q15349 whole entry): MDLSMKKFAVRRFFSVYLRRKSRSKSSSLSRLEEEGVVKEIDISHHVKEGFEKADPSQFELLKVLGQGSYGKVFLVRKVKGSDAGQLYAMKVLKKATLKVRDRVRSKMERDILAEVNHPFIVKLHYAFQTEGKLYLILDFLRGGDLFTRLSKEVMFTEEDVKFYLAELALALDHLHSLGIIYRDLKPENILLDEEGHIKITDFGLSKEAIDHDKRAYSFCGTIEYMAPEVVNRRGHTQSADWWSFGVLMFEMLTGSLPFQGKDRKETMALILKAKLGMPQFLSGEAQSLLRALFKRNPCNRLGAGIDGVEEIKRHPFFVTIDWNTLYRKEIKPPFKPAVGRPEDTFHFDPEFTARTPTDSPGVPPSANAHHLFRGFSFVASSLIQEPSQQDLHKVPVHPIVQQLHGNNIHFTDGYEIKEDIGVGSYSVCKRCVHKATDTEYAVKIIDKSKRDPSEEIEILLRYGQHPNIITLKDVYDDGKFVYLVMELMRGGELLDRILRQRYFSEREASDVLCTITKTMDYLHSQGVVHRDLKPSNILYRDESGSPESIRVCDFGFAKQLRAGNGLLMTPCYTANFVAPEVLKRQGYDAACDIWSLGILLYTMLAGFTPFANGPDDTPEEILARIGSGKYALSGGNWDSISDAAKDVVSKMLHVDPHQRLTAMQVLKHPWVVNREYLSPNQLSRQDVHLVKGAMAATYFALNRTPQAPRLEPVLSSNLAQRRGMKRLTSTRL
T13 sequence (P49137 whole entry): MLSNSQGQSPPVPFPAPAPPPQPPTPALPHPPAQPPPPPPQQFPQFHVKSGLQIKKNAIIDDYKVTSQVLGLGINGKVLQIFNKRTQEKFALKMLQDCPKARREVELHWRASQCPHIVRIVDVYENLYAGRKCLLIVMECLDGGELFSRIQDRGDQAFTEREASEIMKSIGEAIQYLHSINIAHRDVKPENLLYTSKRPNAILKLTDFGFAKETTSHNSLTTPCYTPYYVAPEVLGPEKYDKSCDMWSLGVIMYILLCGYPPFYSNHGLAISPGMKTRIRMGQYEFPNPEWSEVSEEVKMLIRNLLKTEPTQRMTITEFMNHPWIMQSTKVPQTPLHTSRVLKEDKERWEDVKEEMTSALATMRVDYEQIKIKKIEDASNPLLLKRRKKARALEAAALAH
T33 sequence (Q12852 whole entry): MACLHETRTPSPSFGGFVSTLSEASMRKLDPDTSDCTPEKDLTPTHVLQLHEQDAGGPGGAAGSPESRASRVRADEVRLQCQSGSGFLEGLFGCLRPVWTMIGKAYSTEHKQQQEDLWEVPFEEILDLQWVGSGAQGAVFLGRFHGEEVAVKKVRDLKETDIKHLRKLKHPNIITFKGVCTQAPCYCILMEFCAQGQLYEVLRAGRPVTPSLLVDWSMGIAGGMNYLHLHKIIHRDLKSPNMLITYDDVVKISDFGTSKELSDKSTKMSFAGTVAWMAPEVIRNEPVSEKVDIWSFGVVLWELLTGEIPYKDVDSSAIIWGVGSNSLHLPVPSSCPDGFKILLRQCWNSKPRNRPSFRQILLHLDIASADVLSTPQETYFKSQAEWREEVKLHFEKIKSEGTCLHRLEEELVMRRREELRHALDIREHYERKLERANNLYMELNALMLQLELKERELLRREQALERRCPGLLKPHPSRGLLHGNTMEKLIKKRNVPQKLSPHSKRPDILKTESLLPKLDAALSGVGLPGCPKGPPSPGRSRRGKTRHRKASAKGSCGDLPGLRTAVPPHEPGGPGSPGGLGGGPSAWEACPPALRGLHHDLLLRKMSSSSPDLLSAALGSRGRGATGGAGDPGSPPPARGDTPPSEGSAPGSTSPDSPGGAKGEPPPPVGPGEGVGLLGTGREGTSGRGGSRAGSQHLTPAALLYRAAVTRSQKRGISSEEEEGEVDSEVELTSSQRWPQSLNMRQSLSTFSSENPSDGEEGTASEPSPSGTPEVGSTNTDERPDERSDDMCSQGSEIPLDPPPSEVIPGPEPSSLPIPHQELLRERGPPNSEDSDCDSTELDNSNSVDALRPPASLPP
T14 sequence (Q9H093 whole entry): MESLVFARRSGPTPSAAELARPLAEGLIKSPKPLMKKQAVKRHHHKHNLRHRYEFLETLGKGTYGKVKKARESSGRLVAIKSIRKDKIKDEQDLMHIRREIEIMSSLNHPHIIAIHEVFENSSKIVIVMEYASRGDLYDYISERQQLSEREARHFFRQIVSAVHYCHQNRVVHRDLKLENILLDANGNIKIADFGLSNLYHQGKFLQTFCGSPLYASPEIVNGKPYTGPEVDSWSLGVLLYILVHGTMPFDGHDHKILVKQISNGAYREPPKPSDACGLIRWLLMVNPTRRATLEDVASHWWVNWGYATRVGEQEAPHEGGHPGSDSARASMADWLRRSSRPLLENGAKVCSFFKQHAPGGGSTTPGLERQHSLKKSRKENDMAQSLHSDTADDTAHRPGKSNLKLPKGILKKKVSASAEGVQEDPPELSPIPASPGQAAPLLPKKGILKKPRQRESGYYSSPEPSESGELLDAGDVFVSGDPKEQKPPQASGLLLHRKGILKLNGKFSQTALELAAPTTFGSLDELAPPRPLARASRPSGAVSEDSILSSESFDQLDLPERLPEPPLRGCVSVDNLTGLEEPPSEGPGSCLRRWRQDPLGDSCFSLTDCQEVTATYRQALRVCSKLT
T22 sequence (Q13188 whole entry): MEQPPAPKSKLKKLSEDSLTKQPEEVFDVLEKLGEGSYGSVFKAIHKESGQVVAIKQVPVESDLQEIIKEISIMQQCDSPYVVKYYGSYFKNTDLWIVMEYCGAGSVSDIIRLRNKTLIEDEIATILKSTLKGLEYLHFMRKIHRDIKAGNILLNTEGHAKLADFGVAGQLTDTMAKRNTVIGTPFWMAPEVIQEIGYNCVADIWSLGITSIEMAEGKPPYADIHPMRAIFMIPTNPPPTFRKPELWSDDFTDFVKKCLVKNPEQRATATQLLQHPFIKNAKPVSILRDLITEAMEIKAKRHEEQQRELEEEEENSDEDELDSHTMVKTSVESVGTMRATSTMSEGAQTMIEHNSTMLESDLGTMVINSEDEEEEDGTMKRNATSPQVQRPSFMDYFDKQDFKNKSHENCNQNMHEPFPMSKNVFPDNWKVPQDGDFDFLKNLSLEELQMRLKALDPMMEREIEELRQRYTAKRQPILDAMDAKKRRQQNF
T15 sequence (Q96L34 whole entry): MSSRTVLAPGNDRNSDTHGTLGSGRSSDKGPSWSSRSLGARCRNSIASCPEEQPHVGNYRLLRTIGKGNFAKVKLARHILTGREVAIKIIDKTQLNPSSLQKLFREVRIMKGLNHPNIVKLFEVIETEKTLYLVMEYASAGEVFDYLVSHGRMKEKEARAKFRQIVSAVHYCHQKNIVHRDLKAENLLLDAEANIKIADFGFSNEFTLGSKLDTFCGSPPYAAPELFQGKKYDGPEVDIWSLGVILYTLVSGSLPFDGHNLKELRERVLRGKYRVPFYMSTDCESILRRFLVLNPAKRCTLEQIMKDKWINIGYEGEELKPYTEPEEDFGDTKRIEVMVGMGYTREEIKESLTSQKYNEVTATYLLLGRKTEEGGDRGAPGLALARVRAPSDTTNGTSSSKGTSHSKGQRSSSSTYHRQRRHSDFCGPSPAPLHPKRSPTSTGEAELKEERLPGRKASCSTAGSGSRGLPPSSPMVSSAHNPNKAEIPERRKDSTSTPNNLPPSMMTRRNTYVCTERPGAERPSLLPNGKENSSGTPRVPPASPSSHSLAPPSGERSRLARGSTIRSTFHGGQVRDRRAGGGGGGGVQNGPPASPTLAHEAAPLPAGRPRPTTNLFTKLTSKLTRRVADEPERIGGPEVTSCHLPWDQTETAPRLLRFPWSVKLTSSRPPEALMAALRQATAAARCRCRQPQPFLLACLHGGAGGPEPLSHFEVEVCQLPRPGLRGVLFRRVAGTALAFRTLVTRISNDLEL
T6 sequence (Q8N752 whole entry): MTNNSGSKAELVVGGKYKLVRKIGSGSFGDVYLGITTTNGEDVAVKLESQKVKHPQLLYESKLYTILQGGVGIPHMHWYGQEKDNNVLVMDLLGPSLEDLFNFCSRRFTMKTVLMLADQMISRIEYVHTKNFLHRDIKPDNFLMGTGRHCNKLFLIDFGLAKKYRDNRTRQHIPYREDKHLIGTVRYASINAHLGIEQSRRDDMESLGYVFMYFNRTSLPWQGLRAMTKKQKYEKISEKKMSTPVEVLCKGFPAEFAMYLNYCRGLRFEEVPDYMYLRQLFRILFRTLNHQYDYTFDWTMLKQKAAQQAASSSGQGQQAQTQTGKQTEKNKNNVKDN
T19 sequence (P51812 whole entry): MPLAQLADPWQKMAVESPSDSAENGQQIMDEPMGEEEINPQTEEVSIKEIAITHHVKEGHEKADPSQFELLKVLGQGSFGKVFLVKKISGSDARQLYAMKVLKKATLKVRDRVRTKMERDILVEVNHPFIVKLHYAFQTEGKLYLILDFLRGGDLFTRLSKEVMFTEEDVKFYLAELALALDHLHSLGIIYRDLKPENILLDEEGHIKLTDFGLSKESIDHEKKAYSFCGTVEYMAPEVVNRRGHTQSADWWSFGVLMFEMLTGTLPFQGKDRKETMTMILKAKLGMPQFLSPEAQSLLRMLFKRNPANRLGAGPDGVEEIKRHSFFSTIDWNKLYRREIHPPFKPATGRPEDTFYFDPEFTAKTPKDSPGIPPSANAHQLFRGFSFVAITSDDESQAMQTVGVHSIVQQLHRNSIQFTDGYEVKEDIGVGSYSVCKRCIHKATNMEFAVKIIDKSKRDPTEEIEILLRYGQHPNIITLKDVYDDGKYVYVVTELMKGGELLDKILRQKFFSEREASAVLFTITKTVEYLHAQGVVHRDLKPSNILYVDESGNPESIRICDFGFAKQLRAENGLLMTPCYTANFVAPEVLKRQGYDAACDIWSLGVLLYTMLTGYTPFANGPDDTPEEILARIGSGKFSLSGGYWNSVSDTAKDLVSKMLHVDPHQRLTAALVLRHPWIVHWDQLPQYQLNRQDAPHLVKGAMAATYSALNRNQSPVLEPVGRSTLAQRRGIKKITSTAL

Q: CC(=O)Nc1nc2ccc(-c3cnc(C)c(NC(=O)OC4CCCCC4)c3)cc2s1 [PK68, cyclohexyl (5-(2-acetamidobenzo[d]thiazol-6-yl)-2-methylpyridin-3-yl)carbamate] was tested. Which Activity% (PDGFRb; 1 μM) did it give?
A: Its Activity% is 75.13%.

Q: What about the activity at 1 µM (PDGFRb) of the same compound?
A: The activity at 1 µM was 76.7%.

Q: What about the Activity% (PKCtheta; 1 μM) of the same compound?
A: The Activity% was 97.50%.

Q: And the activity at 1 µM (PKCtheta)?
A: The activity at 1 µM was 101%.

Q: And the Activity% (PBK/TOPK; 1 μM)?
A: Its Activity% is 97.84%.

Q: And the activity at 1 µM (PBK/TOPK)?
A: The activity at 1 µM was 98.4%.

Q: And the Activity% (CK1d; 1 μM)?
A: Its Activity% is 103.42%.

Q: And the activity at 1 µM (CK1d)?
A: Its activity at 1 µM is 105%.

Q: And the Activity% (PLK4/SAK; 1 μM)?
A: The Activity% was 89.27%.

Q: What about the activity at 1 µM (PLK4/SAK) of the same compound?
A: The activity at 1 µM was 91.8%.

Q: What about the Activity% (CK1a1L; 1 μM) of the same compound?
A: Its Activity% is 103.24%.

Q: What about the activity at 1 µM (CK1a1L) of the same compound?
A: Its activity at 1 µM is 106%.

Q: What about the Activity% (PDK1/PDPK1; 1 μM) of the same compound?
A: The Activity% was 90.43%.

Q: And the activity at 1 µM (PDK1/PDPK1)?
A: Its activity at 1 µM is 92.7%.

Q: And the Activity% (ALK3/BMPR1A; 1 μM)?
A: The Activity% was 103.05%.

Q: What about the activity at 1 µM (ALK3/BMPR1A) of the same compound?
A: The activity at 1 µM was 105%.

Q: And the Activity% (CAMKK1; 1 μM)?
A: The Activity% was 111.65%.

Q: What about the activity at 1 µM (CAMKK1) of the same compound?
A: Its activity at 1 µM is 113%.

Q: What about the Activity% (DYRK2; 1 μM) of the same compound?
A: The Activity% was 85.35%.

Q: And the activity at 1 µM (DYRK2)?
A: Its activity at 1 µM is 86.3%.

Q: What about the Activity% (c-Kit; 1 μM) of the same compound?
A: Its Activity% is 75.47%.

Q: What about the activity at 1 µM (c-Kit) of the same compound?
A: Its activity at 1 µM is 77.5%.

Q: And the Activity% (CDK6/cyclin D1; 1 μM)?
A: Its Activity% is 93.73%.

Q: What about the activity at 1 µM (CDK6/cyclin D1) of the same compound?
A: Its activity at 1 µM is 93.8%.

Q: And the Activity% (MAPKAPK2; 1 μM)?
A: Its Activity% is 100.37%.

Q: What about the activity at 1 µM (MAPKAPK2) of the same compound?
A: Its activity at 1 µM is 101%.

Q: And the Activity% (SNARK/NUAK2; 1 μM)?
A: The Activity% was 97.10%.

Q: What about the activity at 1 µM (SNARK/NUAK2) of the same compound?
A: Its activity at 1 µM is 98.7%.

Q: And the Activity% (MARK4; 1 μM)?
A: Its Activity% is 101.55%.

Q: And the activity at 1 µM (MARK4)?
A: The activity at 1 µM was 103%.

Q: And the Activity% (EPHB3; 1 μM)?
A: Its Activity% is 98.23%.

Q: What about the activity at 1 µM (EPHB3) of the same compound?
A: Its activity at 1 µM is 98.8%.

Q: And the Activity% (LATS2; 1 μM)?
A: Its Activity% is 93.96%.

Q: And the activity at 1 µM (LATS2)?
A: The activity at 1 µM was 94.4%.

Q: And the Activity% (NEK5; 1 μM)?
A: The Activity% was 95.10%.

Q: And the activity at 1 µM (NEK5)?
A: Its activity at 1 µM is 95.5%.

Q: And the Activity% (RSK2; 1 μM)?
A: The Activity% was 90.87%.

Q: What about the activity at 1 µM (RSK2) of the same compound?
A: The activity at 1 µM was 92.3%.

Q: What about the Activity% (TNK1; 1 μM) of the same compound?
A: The Activity% was 86.66%.

Q: What about the activity at 1 µM (TNK1) of the same compound?
A: The activity at 1 µM was 87.9%.

Q: What about the Activity% (PRKX; 1 μM) of the same compound?
A: The Activity% was 103.46%.

Q: And the activity at 1 µM (PRKX)?
A: Its activity at 1 µM is 104%.

Q: What about the Activity% (MST2/STK3; 1 μM) of the same compound?
A: Its Activity% is 109.16%.

Q: And the activity at 1 µM (MST2/STK3)?
A: The activity at 1 µM was 109%.

Q: What about the Activity% (PKAcg; 1 μM) of the same compound?
A: The Activity% was 94.66%.

Q: What about the activity at 1 µM (PKAcg) of the same compound?
A: The activity at 1 µM was 95.6%.

Q: And the Activity% (TESK1; 1 μM)?
A: Its Activity% is 111.93%.

Q: And the activity at 1 µM (TESK1)?
A: Its activity at 1 µM is 118%.

Q: What about the Activity% (WEE1; 1 μM) of the same compound?
A: The Activity% was 94.05%.

Q: What about the activity at 1 µM (WEE1) of the same compound?
A: The activity at 1 µM was 95.7%.

Q: And the Activity% (PLK2; 1 μM)?
A: The Activity% was 102.02%.

Q: What about the activity at 1 µM (PLK2) of the same compound?
A: Its activity at 1 µM is 102%.

Q: And the Activity% (NEK7; 1 μM)?
A: Its Activity% is 103.37%.

Q: What about the activity at 1 µM (NEK7) of the same compound?
A: Its activity at 1 µM is 105%.

Q: And the Activity% (RSK3; 1 μM)?
A: Its Activity% is 96.49%.

Q: And the activity at 1 µM (RSK3)?
A: The activity at 1 µM was 97.6%.

Q: And the Activity% (ZAK/MLTK; 1 μM)?
A: The Activity% was 66.51%.

Q: And the activity at 1 µM (ZAK/MLTK)?
A: The activity at 1 µM was 68.6%.

Q: And the Activity% (YSK4/MAP3K19; 1 μM)?
A: The Activity% was 94.66%.

Q: And the activity at 1 µM (YSK4/MAP3K19)?
A: The activity at 1 µM was 95%.

Q: What about the Activity% (NEK3; 1 μM) of the same compound?
A: Its Activity% is 116.50%.

Q: What about the activity at 1 µM (NEK3) of the same compound?
A: The activity at 1 µM was 119%.

Q: And the Activity% (CDC7/DBF4; 1 μM)?
A: Its Activity% is 104.41%.

Q: And the activity at 1 µM (CDC7/DBF4)?
A: The activity at 1 µM was 110%.

Q: And the Activity% (DLK/MAP3K12; 1 μM)?
A: Its Activity% is 94.64%.

Q: And the activity at 1 µM (DLK/MAP3K12)?
A: The activity at 1 µM was 103%.
